# pIC50: −log10 of the molar value. Counter-ions that a name gives are not always drawn.
# Target: T1, human ProRS (prolyl tRNA synthetase moiety of glutamyl prolyl tRNA synthetase, EPRS) (Homo sapiens, UniProt P07814)
# T1 construct: The prolyl tRNA synthetase moiety (ProRS) in the cDNA of glutamyl prolyl tRNA synthetase was subcloned; 6xHis (N, cleaved yes); made in house; host or cells: E. coli BL21 (DE3)
# T1 sequence (P07814 1007-1512 limits assumed): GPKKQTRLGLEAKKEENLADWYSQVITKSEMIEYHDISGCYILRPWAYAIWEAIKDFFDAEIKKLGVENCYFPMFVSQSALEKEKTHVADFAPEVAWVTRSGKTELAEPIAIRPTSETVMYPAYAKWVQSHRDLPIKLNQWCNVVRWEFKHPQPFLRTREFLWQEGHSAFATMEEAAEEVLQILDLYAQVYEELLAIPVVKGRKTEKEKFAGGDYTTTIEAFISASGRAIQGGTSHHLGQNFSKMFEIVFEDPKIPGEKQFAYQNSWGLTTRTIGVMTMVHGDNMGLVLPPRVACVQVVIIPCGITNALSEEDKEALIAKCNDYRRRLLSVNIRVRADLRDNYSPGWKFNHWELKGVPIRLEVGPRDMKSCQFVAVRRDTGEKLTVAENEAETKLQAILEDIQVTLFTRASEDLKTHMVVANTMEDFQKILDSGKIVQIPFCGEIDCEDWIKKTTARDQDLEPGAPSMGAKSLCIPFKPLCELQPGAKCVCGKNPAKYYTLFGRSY
# Experiment: Assay for inhibitors of prolyl tRNA synthetase activity (ProRS assay, labeled proline incorporation)
# Format: biochemical
# Conditions: human ProRS 20 nM, 10 min at 37° C.; read-out: EPRS IC50
# Text: In order to establish the activities of the compounds highlighted above, we determined extent of inhibition of prolyl tRNA synthetase activity in dose response curves to obtain IC50 values.
# The prolyl tRNA synthetase moiety (ProRS) in the cDNA of glutamyl prolyl tRNA synthetase was subcloned, tagged with a single biotin, purified and used in the assay.
# Briefly, human ProRS with a 6×N-terminal His tag in pET28N with TVMV BioP was transformed in E. coli BL21 (DE3) cells, selected, overexpressed and purified using a Ni Seph 6 FF XK 16/20 column in the first stage. Ni-NTA eluates were pooled and treated with TVMV protease, and biotinylated using d-Biotin, MgCl2, ATP and the BirA enzyme. This was rerun through a Ni column as before. The eluates were further enriched and purified using membrane ultrafiltration and a SuperDex 200 XK 16/60 column, and peak fractions were confirmed by SDS-PAGE prior to protein amount determination, aliquoting and storage at −80° C. • ProRS assay was performed in 96 well plates in a final reaction volume of 20 μl, using staggered additions of Tris-Cl (pH 7.5, 60 mM), dithiothreitol (2 mM), ATP (5 mM, pH 7.0), MgCl2 6 mM), ProRS (20 nM, with pre-determined active fraction range) and bovine tRNA (20 μg). Controls and compounds, at various concentrations (10 μM to 0.5 nM), were incubated on ice with enzyme mix for 15 min followed by addition of proline (non-labeled and labeled, 3.96 and 1.04 μM (1 μCi) respectively) to initiate the reaction. Reaction was carried out for 10 min at 37° C. and terminated by addition of TCA (10%, 100 μl). Reaction mix was collected on a Whatman GF/B filter using a vacuum filtration manifold. This filter was washed 3 times with 5% TCA followed by 2 washes with ethanol, air dried, and read using a liquid scintillation counter (TopCount NXT) using MicroScint O. IC50 values were calculated and analyzed using ToolSet (4-parameter plot) and depicted herein.
row,pIC50,Molecule
1,6.50,"Cc1ccc(C(F)(F)F)c2c(=O)n(CC(=O)C[C@H]3NCCC[C@@H]3O)cnc12 [Example 29, 3-{3-[(2R,3S)-3-Hydroxypiperidin-2-yl]-2-oxopropyl}-8-methyl-5-(trifluoromethyl)quinazolin-4(3H)-one hydrochloride]"
2,8.10,"Cc1cc(-c2cccnc2)cc2c(=O)n(CC(=O)C[C@H]3NCCC[C@@H]3O)cnc12 [Example 21, 3-{3-[(2R,3S)-3-Hydroxypiperidin-2-yl]-2-oxopropyl}-8-methyl-6-(pyridin-3-yl)quinazolin-4(3H)-one dihydrochloride]"
3,8.52,"CCc1cc(C)c2ncn(CC(=O)C[C@H]3NCCC[C@@H]3O)c(=O)c2c1 [Example 6, 6-Ethyl-3-(3-((2R,3S)-3-hydroxypiperidin-2-yl)-2-oxopropyl)-8-methylquinazolin-4(3H)-one hydrochloride]"
4,7.92,"Cc1cc(C2CCOCC2)cc2c(=O)n(CC(=O)C[C@H]3NCCC[C@@H]3O)cnc12 [Example 23, 3-{3-[(2R,3S)-3-Hydroxypiperidin-2-yl]-2-oxopropyl}-8-methyl-6-(tetrahydro-2H-pyran-4-yl)quinazolin-4(3H)-one hydrochloride]"
5,7.14,"Cc1cc(Cl)cc2c(=O)n(CC(=O)C[C@H]3NCCC[C@@H]3O)cnc12 [Example 1, 6-Chloro-3-{3-[(2R,3S)-3-hydroxypiperidin-2-yl]-2-oxopropyl}-8-methylquinazolin-4(3H)-one hydrochloride]"
6,7.42,"CCc1cc(F)cc2c(=O)n(CC(=O)C[C@H]3NCCC[C@@H]3O)cnc12 [Example 14, 8-Ethyl-6-fluoro-3-(3-((2R,3S)-3-hydroxypiperidin-2-yl)-2-oxopropyl)quinazolin-4(3H)-one hydrochloride]"
7,7.85,"Cc1cc(N2CCCC2)cc2c(=O)n(CC(=O)C[C@H]3NCCC[C@@H]3O)cnc12 [Example 24, 3-{3-[(2R,3S)-3-Hydroxypiperidin-2-yl]-2-oxopropyl}-8-methyl-6-(pyrrolidin-1-yl)quinazolin-4(3H)-one dihydrochloride]"
8,8.22,"Cc1cc(C(C)C)cc2c(=O)n(CC(=O)C[C@H]3NCCC[C@@H]3O)cnc12 [Example 10, 3-{3-[(2R,3S)-3-Hydroxypiperidin-2-yl]-2-oxopropyl}-6-isopropyl-8-methylquinazolin-4(3H)-one hydrochloride]"
9,8.22,"O=C(C[C@H]1NCCC[C@@H]1O)Cn1cnc2cccc(-c3ccc(F)c(F)c3)c2c1=O [Example 27, 5-(3,4-Difluorophenyl)-3-{3-[(2R,3S)-3-hydroxypiperidin-2-yl]-2-oxopropyl}quinazolin-4(3H)-one hydrochloride]"
10,6.50,"O=c1c2c(C(F)(F)F)cccc2ncn1C[C@@H](O)C[C@H]1NCCC[C@@H]1O [Example 59, 3-{(S)-2-Hydroxy-3-[(2R,3S)-3-hydroxypiperidin-2-yl]propyl}-5-(trifluoromethyl)quinazolin-4(3H)-one hydrochloride]"
11,8.05,"O=c1c2c(C3CC3)cccc2ncn1C[C@@H](O)C[C@H]1NCCC[C@@H]1O [Example 68, 5-Cyclopropyl-3-{(S)-2-hydroxy-3-[(2R,3S)-3-hydroxypiperidin-2-yl]propyl}quinazolin-4(3H)-one hydrochloride]"
12,7.28,"O=c1c2c(-c3cccnc3)cccc2ncn1C[C@@H](O)C[C@H]1NCCC[C@@H]1O [Example 62, 3-{(S)-2-Hydroxy-3-[(2R,3S)-3-hydroxypiperidin-2-yl]propyl}-5-(pyridin-3-yl)quinazolin-4(3H)-one dihydrochloride]"
13,8.22,"Cc1cc(C2CC2)cc2c(=O)n(CC(=O)C[C@H]3NCCC[C@@H]3O)cnc12 [Example 11, 6-Cyclopropyl-3-{3-[(2R,3S)-3-hydroxypiperidin-2-yl]-2-oxopropyl}-8-methylquinazolin-4(3H)-one hydrochloride]"
14,8.10,"O=C(C[C@H]1NCCC[C@@H]1O)Cn1cnc2cccc(F)c2c1=O [Example 5, 5-Fluoro-3-{3-[(2R,3S)-3-hydroxypiperidin-2-yl]-2-oxopropyl}quinazolin-4(3H)-one hydrochloride]"

# Second part, the molecule before the results:
row,Molecule,pIC50
1,"Cc1cc(S(C)(=O)=O)cc2c(=O)n(C[C@@H](O)C[C@H]3NCCC[C@@H]3O)cnc12 [Example 43, 3-{(S)-2-Hydroxy-3-[(2R,3S)-3-hydroxypiperidin-2-yl]propyl}-8-methyl-6-(methylsulfonyl)quinazolin-4(3H)-one hydrochloride]",7.42
2,"Cc1cc(-c2cscn2)cc2c(=O)n(C[C@@H](O)C[C@H]3NCCC[C@@H]3O)cnc12 [Example 66, 3-((S)-2-hydroxy-3-((2R,3S)-3-hydroxypiperidin-2-yl)propyl)-8-methyl-6-(thiazol-4-yl)quinazolin-4(3H)-one hydrochloride]",7.89
3,"O=c1c2c(-c3cccc(C(F)(F)F)c3)cccc2ncn1C[C@@H](O)C[C@H]1NCCC[C@@H]1O [Example 60, 3-{(S)-2-Hydroxy-3-[(2R,3S)-3-hydroxypiperidin-2-yl]propyl}-5-[3-(trifluoromethyl)phenyl]quinazolin-4(3H)-one hydrochloride]",7.42
4,"Cc1cc(-c2cccc(F)c2)cc2c(=O)n(C[C@@H](O)C[C@H]3NCCC[C@@H]3O)cnc12 [Example 53, 6-(3-Fluorophenyl)-3-{(S)-2-hydroxy-3-[(2R,3S)-3-hydroxypiperidin-2-yl]propyl}-8-methylquinazolin-4(3H)-one hydrochloride]",8.05
5,"Cc1c(Cl)ccc2c(=O)n(C[C@@H](O)C[C@H]3NCCC[C@@H]3O)cnc12 [Example 36, 7-Chloro-3-{(S)-2-hydroxy-3-[(2R,3S)-3-hydroxypiperidin-2-yl]propyl}-8-methylquinazolin-4(3H)-one hydrochloride]",6.37
6,"Cc1cc(C2CCNCC2)cc2c(=O)n(C[C@@H](O)C[C@H]3NCCC[C@@H]3O)cnc12 [Example 69, 3-{(S)-2-hydroxy-3-[(2R,3S)-3-hydroxypiperidin-2-yl]propyl}-8-methyl-6-(piperidin-4-yl)quinazolin-4(3H)-one dihydrochloride]",6.97
7,"O=c1c2cc(-c3cccc(C(F)(F)F)c3)ccc2ncn1C[C@@H](O)C[C@H]1NCCC[C@@H]1O [Example 52, 3-{(S)-2-hydroxy-3-[(2R,3S)-3-hydroxypiperidin-2-yl]propyl}-6-(3-(trifluoromethyl)phenyl)quinazolin-4(3H)-one hydrochloride]",7.40
8,"3-{(S)-2-hydroxy-3-[(2R,3S)-3-hydroxypiperidin-2-yl]propyl}-8-methyl-6-(1-methyl-1H-pyrazol-3-yl)quinazolin-4(3H)-one hydrochloride [Example 71]",5.38
9,"Cc1cc(C#N)cc2c(=O)n(C[C@@H](O)C[C@H]3NCCC[C@@H]3O)cnc12 [Example 47, 3-{(S)-2-Hydroxy-3-[(2R,3S)-3-hydroxypiperidin-2-yl]propyl}-8-methyl-4-oxo-3,4-dihydroquinazoline-6-carbonitrile hydrochloride]",6.63
10,"O=c1c2cc(-c3cccc(Cl)c3)ccc2ncn1C[C@@H](O)C[C@H]1NCCC[C@@H]1O [Example 51, 6-(3-Chlorophenyl)-3-{(S)-2-hydroxy-3-[(2R,3S)-3-hydroxypiperidin-2-yl]propyl}quinazolin-4(3H)-one hydrochloride]",7.64
11,"Cc1cc(C2CC2)cc2c(=O)n(C[C@@H](O)C[C@H]3NCCC[C@@H]3O)cnc12 [Example 46, 6-Cyclopropyl-3-{(S)-2-hydroxy-3-[(2R,3S)-3-hydroxypiperidin-2-yl]propyl}-8-methylquinazolin-4(3H)-one hydrochloride]",7.47
12,"Cc1cc(F)cc2c(=O)n(C[C@@H](O)C[C@H]3NCCC[C@@H]3O)cnc12 [Example 34, 6-Fluoro-3-{(S)-2-hydroxy-3-[(2R,3S)-3-hydroxypiperidin-2-yl]propyl}-8-methylquinazolin-4(3H)-one hydrochloride]",6.74

# — patent publication US20210163443A1, “Febrifugine Derivatives” (BRISTOL-MYERS SQUIBB COMPANY, priority 2019, published 2021)
